Consider two compounds from patent US11820737B2, “Generation of peroxyhydroxycarboxylic acid and the use thereof” (ECOLAB USA INC., priority 2020, dated 2023).

The structures appear in SMILES notation. Values joined by “and” are separate entries in the source; they are usually repeats but may differ in a detail not shown here. Equal values may be shown once.

Data set [1] concerns Campylobacter jejuni ATCC 33291. Put plainly: Food contact suspension test (FCS, AOAC 960.09). The class given is cell-based. The note with it: for concentration required for efficacy: 75° F., FIG. 6; for Avg. Log10 Growth / Log10 Reduction: 30 second. How it is done: Antimicrobial Efficacy of Peroxylactic Acid. The antimicrobial efficacy of generated peroxylactic acid was evaluated following the US EPA food contact suspension test protocol (AOAC 960.09) against Staphylococcus aureus and Escherichia coli according to the conditions set forth in Table 7.
Additional efficacy testing against Campylobacter jejuni ATCC 33291 as described in Table 10 was completed to compare efficacy at 75° F. of lactic acid, peroxylactic acid (PLA) and peroxyacetic acid (PAA). […] In particular, in comparison to lactic acid substantially lower concentrations are required (25 ppm PLA instead of approximately 5000 ppm lactic acid).
Beneficially, the concentration of peroxylactic acid required for micro efficacy are substantially lower than lactic acid and the lactic acid which is formed upon degradation of the peroxylactic acid is further beneficial for micro efficacy.

Data set [2] relates to Listeria monocytogenes ATCC 49594. Put plainly: Food contact suspension test (FCS, AOAC 960.09). The settings on record: 30 second. Type of data set: cell-based. How it is done:
(§1) Additional antimicrobial efficacy of generated peroxylactic acid was evaluated following the US EPA food contact suspension test protocol (AOAC 960.09) against Salmonella, E. coli, Campylobacter and Listeria according to the conditions set forth in Table 16.

Data set [3] relates to Salmonella, E. coli, Campylobacter and Listeria. The experiment in a line: Food contact suspension test (AOAC 960.09), FIG. 7. The class given is cell-based. The note with it: 30 seconds. The protocol: as §1
In addition at 100 ppm PLA provides efficacy of greater than 7 log reduction against Listeria, whereas peroxyacetic acid is known to require at least about 180 ppm for greater than 7 log reduction against Listeria.

A short description of data set [4]: Kinetic instability of peroxylactic acid generated through equilibrium reaction of lactic acid and hydrogen peroxide (FIG. 4). The class given is physicochemical. The note with it: generated through equilibrium between lactic acid and H2O2, FIG. 4. The protocol:
Comparison of Lactide Ester to Lactic Acid Precursor to Generate Peroxylactic Acid. The equilibrium reaction using lactic acid reagent for generating perlactic acid was performed to show the distinct advantages of the methods of generation according to the invention. […] It is also known that the reaction results in additional byproducts—which may not be suitable for various applications of use.
This makes it commercially not feasible to deliver the compositions for end application at customer locations.

Regarding `CC(O)C(=O)O` (stereo not drawn) [Lactic Acid, reference compound], the “concentration required for efficacy” value in data set [1] was “approximately 5000 ppm”.
`CC(O)C(=O)OO` (stereo not drawn) [PLA, peroxylactic acid]: the “Avg. Log10 Growth” value is listed as 5.84 Log10 in data set [2] (50 ppm PLA); less than 1.00 Log10 in data set [2] (100 ppm PLA); less than 1.00 Log10 in data set [2] (150 ppm PLA); less than 1.00 Log10 in data set [1] (25 ppm PLA); less than 1.00 Log10 in data set [1] (50 ppm PLA); less than 1.00 Log10 in data set [1] (75ppm PLA). Further, the CFU/mL in data set [2] (50 ppm PLA) was 6.90E+05 CFU/mL and 6.80E+05 CFU/mL. The “Log10 Growth” value in data set [2] (50 ppm PLA) is 5.84 Log10 and 5.83 Log10. The “Log10 Reduction” value in data set [2] (50 ppm PLA) is listed as 2.23 Log10; in data set [2] (100 ppm PLA), greater than 7.06 Log10; in data set [2] (150 ppm PLA) it was greater than 7.06 Log10; in data set [1] (25 ppm PLA), greater than 7.06 Log10; in data set [1] (50 ppm PLA), greater than 7.06 Log10; in data set [1] (75ppm PLA), greater than 7.06 Log10. For the same compound, in data set [3], the “low concentration dose providing efficacy against various microbes” value is on record as 25 ppm. The “concentration required for efficacy” value in data set [1] is on record as 25 ppm. Moreover, the “stability of generated perlactic acid” value in data set [4] is “very unstable”.
